# In patent publication US20260007599A1, “TICAGRELOR IV FORMULATIONS FOR USE IN THE TREATMENT OF GRAM-POSITIVE BACTEREMIA” (Hyloris Developments SA, priority 2023, published 2026):
# Columns and labels:
# [1] = 3 months stability study at pH 7, 7.5 and 8 in amber glass vials; format: physicochemical; design: Assay: unit not given here; conditions: for Acetal impurity / Amine impurity / Assay / Description / Regiomer / Sum impurities >0.05 / Total (impurity) / Triol impurity / pH: amber vials, HPβCD 40% w/w
# Description: To optimize the HPβCD concentration and the pH of the solution for intravenous use, a 12 week/3 months stability study was conducted. […] Its stability was tested at regular intervals.
# A comparison of stability profile at 3 different pH-7, 7.5 and 8—was carried out as below, the manufacturing process for all 3 formulations was kept constant with buffer strength at 19 mM.
# [2] = test system: Methicillin sensitive Staphylococcus aureus (MSSA); conditions: ex-vivo; cited from earlier work
# [3] = test system: methicillin-resistant Staphylococcus epidermis (MRSE); conditions: ex-vivo; cited from earlier work
# [4] = 19 mM pH 7 phosphate buffer, 1 M
# [5] = 19 mM pH 7 phosphate buffer, 2 M
# [6] = 19 mM pH 7 phosphate buffer, 3 M
# [7] = 19 mM pH 7 phosphate buffer, T0
# [8] = 19 mM pH 7.5 phosphate buffer, 1 M
# [9] = 19 mM pH 7.5 phosphate buffer, 2 M
# [10] = 19 mM pH 7.5 phosphate buffer, 3 M
# [11] = 19 mM pH 7.5 phosphate buffer, T0
# [12] = 19 mM pH 8 phosphate buffer, 1 M
# [13] = 19 mM pH 8 phosphate buffer, 2 M
# [14] = 19 mM pH 8 phosphate buffer, 3 M
# [15] = 19 mM pH 8 phosphate buffer, T0
smiles,measurement,setting,value
"CCCSc1nc(N[C@@H]2C[C@H]2c2ccc(F)c(F)c2)c2nnn([C@@H]3C[C@H](OCCO)[C@@H](O)[C@H]3O)c2n1 [ticagrelor, (1S,2S,3R,5S)-3-{7-[(1R,2S)-2-(3,4-difluorophenyl)cyclopropylamino]5-(propylthio)-3H-(1,2,3)triazolo (4,5-D)pyrimidin-3-yl}-5-(2 hydroxyethoxy) cyclopentane-1,2-diol]",Acetal impurity,[1]; [4],0.05%
same,Amine impurity,[1]; [4],0.04%
same,Assay,[1]; [4],99.73
same,Description,[1]; [4],clear
same,Regiomer,[1]; [4],0.03%
same,Sum impurities >0.05,[1]; [4],0.05%
same,Total (impurity),[1]; [4],0.27%
same,Triol impurity,[1]; [4],0.02%
same,pH,[1]; [4],7.34
same,Acetal impurity,[1]; [5],0.05%
same,Amine impurity,[1]; [5],0.04%
same,Assay,[1]; [5],99.81
same,Description,[1]; [5],clear
same,Regiomer,[1]; [5],0.06%
same,Sum impurities >0.05,[1]; [5],0.11%
same,Total (impurity),[1]; [5],0.34%
same,Triol impurity,[1]; [5],0.04%
same,pH,[1]; [5],7.34
same,Acetal impurity,[1]; [6],0.05%
same,Amine impurity,[1]; [6],0.06%
same,Assay,[1]; [6],98.51
same,Description,[1]; [6],clear
same,Regiomer,[1]; [6],0.11%
same,Sum impurities >0.05,[1]; [6],0.22%
same,Total (impurity),[1]; [6],0.40%
same,Triol impurity,[1]; [6],0.04%
same,pH,[1]; [6],7.30
same,Acetal impurity,[1]; [7],0.05%
same,Amine impurity,[1]; [7],0.04%
same,Assay,[1]; [7],98.95
same,Description,[1]; [7],clear
same,Regiomer,[1]; [7],0.00%
same,Sum impurities >0.05,[1]; [7],0.22%
same,Total (impurity),[1]; [7],0.41%
same,Triol impurity,[1]; [7],0.05%
same,pH,[1]; [7],7.33
same,Acetal impurity,[1]; [8],0.05%
same,Amine impurity,[1]; [8],0.05%
same,Assay,[1]; [8],104.47
same,Description,[1]; [8],clear
same,Regiomer,[1]; [8],0.01%
same,Sum impurities >0.05,[1]; [8],0.14%
same,Total (impurity),[1]; [8],0.32%
same,Triol impurity,[1]; [8],0.05%
same,pH,[1]; [8],7.50
same,Acetal impurity,[1]; [9],0.05%
same,Amine impurity,[1]; [9],0.05%
same,Assay,[1]; [9],102.59
same,Description,[1]; [9],clear
same,Regiomer,[1]; [9],0.04%
same,Sum impurities >0.05,[1]; [9],0.15%
same,Total (impurity),[1]; [9],0.29%
same,Triol impurity,[1]; [9],0.05%
same,pH,[1]; [9],7.48
same,Acetal impurity,[1]; [10],0.05%
same,Amine impurity,[1]; [10],0.05%
same,Assay,[1]; [10],102.31
same,Description,[1]; [10],clear
same,Regiomer,[1]; [10],0.08%
same,Sum impurities >0.05,[1]; [10],0.23%
same,Total (impurity),[1]; [10],0.41%
same,Triol impurity,[1]; [10],0.04%
same,pH,[1]; [10],7.55
same,Acetal impurity,[1]; [11],0.05%
same,Amine impurity,[1]; [11],0.04%
same,Assay,[1]; [11],104.27
same,Description,[1]; [11],clear
same,Regiomer,[1]; [11],0.00%
same,Sum impurities >0.05,[1]; [11],0.11%
same,Total (impurity),[1]; [11],0.31%
same,Triol impurity,[1]; [11],0.04%
same,pH,[1]; [11],7.40
same,Acetal impurity,[1]; [12],0.05%
same,Amine impurity,[1]; [12],0.05%
same,Assay,[1]; [12],105.88
same,Description,[1]; [12],clear
same,Regiomer,[1]; [12],0.01%
same,Sum impurities >0.05,[1]; [12],0.09%
same,Total (impurity),[1]; [12],0.26%
same,Triol impurity,[1]; [12],0.03%
same,pH,[1]; [12],8.10
same,Acetal impurity,[1]; [13],0.05%
same,Amine impurity,[1]; [13],0.05%
same,Assay,[1]; [13],105.46
same,Description,[1]; [13],clear
same,Regiomer,[1]; [13],0.03%
same,Sum impurities >0.05,[1]; [13],0.15%
same,Total (impurity),[1]; [13],0.32%
same,Triol impurity,[1]; [13],0.05%
same,pH,[1]; [13],8.04
same,Acetal impurity,[1]; [14],0.05%
same,Amine impurity,[1]; [14],0.07%
same,Assay,[1]; [14],104.46
same,Description,[1]; [14],clear
same,Regiomer,[1]; [14],0.06%
same,Sum impurities >0.05,[1]; [14],0.23%
same,Total (impurity),[1]; [14],0.37%
same,Triol impurity,[1]; [14],0.05%
same,pH,[1]; [14],8.03
same,Acetal impurity,[1]; [15],0.05%
same,Amine impurity,[1]; [15],0.04%
same,Assay,[1]; [15],103.25
same,Description,[1]; [15],clear
same,Regiomer,[1]; [15],0.00%
same,Sum impurities >0.05,[1]; [15],0.25%
same,Total (impurity),[1]; [15],0.43%
same,Triol impurity,[1]; [15],0.06%
same,pH,[1]; [15],8.07
same,stability of ticagrelor solution in HPβCD (conclusion),[1]; pH range of 7 to 8,stable
same,minimal bactericidal concentration,[2],20 microgram/ml
same,minimal bactericidal concentration,[3],30 microgram/ml
